Data: patent US9192611B2, “Formulations comprising methylthioninium chloride” (WisTa Laboratories Ltd., priority 2010, dated 2015)

Key:
[1] = Thermodynamic stability of MTC hydrates as a function of RH and temperature; conditions: any T and RH; kinetically stable in a certain range
[2] = background statement; cited from earlier work

For `CN(C)c1ccc2nc3ccc(=[N+](C)C)cc-3sc2c1` [Form B, Methylthioninium chloride], the “Thermodynamic stability, in words” value [1] was “not thermodynamically stable”.

For `CN(C)c1ccc2nc3ccc(=[N+](C)C)cc-3sc2c1` [Form A, Methylthioninium chloride], the “RH down to which high kinetic stability is observed” value [2] is given as “less than 20%”.
